Assay results taken from patent US9353134B2, “Silicon-containing carboxylic acid derivative” (KEMPHYS LTD., priority 2012, dated 2016).

## C[Si](C)(CC(CN)CC(=O)O)C1CC1 (stereo not shown)
  melting point: 151.5 to 153 °C
